Experimental data as given in ChEMBL document CHEMBL4138146, “A Schmidt rearrangement-mediated synthesis of novel tetrahydro-benzo[1,4]diazepin-5-ones as potential anticancer and antiprotozoal agents” (Eur J Med Chem, 2017).

Tests used:
Assay type in all cases: functional
SR [1] = assay: Growth inhibition of human SR cells assessed as cell growth at 10^-8 M incubated for 48 hrs by sulforhodamine B assay relative to control; conditions: read-out: Activity
MDA-MB-468 [2] = assay: Growth inhibition of human MDA-MB-468 cells assessed as cell growth at 10^-8 M incubated for 48 hrs by sulforhodamine B assay relative to control; conditions: MDA-MB-468, 48 h, read-out: Activity
SR [3] = assay: Growth inhibition of human SR cells assessed as cell growth at 10^-7 M incubated for 48 hrs by sulforhodamine B assay relative to control; conditions: read-out: Activity
A549 [4] = assay: Growth inhibition of human A549/ATCC cells assessed as cell growth at 10^-7 M incubated for 48 hrs by sulforhodamine B assay relative to control; conditions: A549, 48 h, read-out: Activity
EKVX [5] = assay: Growth inhibition of human EKVX cells assessed as cell growth at 10^-7 M incubated for 48 hrs by sulforhodamine B assay relative to control; conditions: read-out: Activity
UACC-257 [6] = assay: Growth inhibition of human UACC257 cells assessed as cell growth at 10^-7 M incubated for 48 hrs by sulforhodamine B assay relative to control; conditions: UACC-257, 48 h, read-out: Activity
NCI-H23 = assay: Growth inhibition of human NCI-H23 cells assessed as cell growth at 10^-6 M incubated for 48 hrs by sulforhodamine B assay relative to control; conditions: NCI-H23, 48 h, read-out: Activity
OVCAR-8 [7] = assay: Growth inhibition of human OVCAR8 cells assessed as cell growth at 10^-6 M incubated for 48 hrs by sulforhodamine B assay relative to control; conditions: OVCAR-8, 48 h, read-out: Activity
SK-OV-3 [8] = assay: Growth inhibition of human SKOV3 cells assessed as cell growth at 10^-6 M incubated for 48 hrs by sulforhodamine B assay relative to control; conditions: SK-OV-3, 48 h, read-out: Activity
SN12C = assay: Growth inhibition of human SN12C cells assessed as cell growth at 10^-6 M incubated for 48 hrs by sulforhodamine B assay relative to control; conditions: read-out: Activity
T47D = assay: Growth inhibition of human T47D cells assessed as cell growth at 10^-6 M incubated for 48 hrs by sulforhodamine B assay relative to control; conditions: read-out: Activity
MDA-MB-468 [9] = assay: Growth inhibition of human MDA-MB-468 cells assessed as cell growth at 10^-6 M incubated for 48 hrs by sulforhodamine B assay relative to control; conditions: MDA-MB-468, 48 h, read-out: Activity
EKVX [10] = assay: Growth inhibition of human EKVX cells assessed as cell growth at 10^-5 M incubated for 48 hrs by sulforhodamine B assay relative to control; conditions: read-out: Activity
LOX IMVI [11] = assay: Growth inhibition of human LOXIMVI cells assessed as cell growth at 10^-5 M incubated for 48 hrs by sulforhodamine B assay relative to control; conditions: read-out: Activity
HL-60(TB) = assay: Growth inhibition of human HL-60(TB) cells assessed as cell growth at 10^-4 M incubated for 48 hrs by sulforhodamine B assay relative to control; conditions: HL-60, 48 h, read-out: Activity
OVCAR-4 [12] = assay: Growth inhibition of human OVCAR4 cells assessed as cell growth at 10^-4 M incubated for 48 hrs by sulforhodamine B assay relative to control; conditions: OVCAR-4, 48 h, read-out: Activity
SK-OV-3 [13] = assay: Growth inhibition of human SKOV3 cells assessed as cell growth at 10^-4 M incubated for 48 hrs by sulforhodamine B assay relative to control; conditions: SK-OV-3, 48 h, read-out: Activity
K562 = assay: Growth inhibition of human K562 cells incubated for 48 hrs by sulforhodamine B assay; conditions: K562, 48 h
RPMI-8226 = assay: Growth inhibition of human RPMI8226 cells incubated for 48 hrs by sulforhodamine B assay; conditions: RPMI-8226, 48 h; for CC50: read-out: LC50 (the source's name)
A549 [14] = assay: Growth inhibition of human A549/ATCC cells incubated for 48 hrs by sulforhodamine B assay; conditions: A549, 48 h
NCI-H522 = assay: Growth inhibition of human NCI-H522 cells incubated for 48 hrs by sulforhodamine B assay; conditions: NCI-H522, 48 h; for CC50: read-out: LC50 (the source's name)
HCC 2998 = assay: Growth inhibition of human HCC2998 cells incubated for 48 hrs by sulforhodamine B assay; conditions: HCC 2998, 48 h
HCT-116 = assay: Growth inhibition of human HCT116 cells incubated for 48 hrs by sulforhodamine B assay; conditions: HCT-116, 48 h
HT-29 = assay: Growth inhibition of human HT-29 cells incubated for 48 hrs by sulforhodamine B assay; conditions: HT-29, 48 h
KM12 = assay: Growth inhibition of human KM12 cells incubated for 48 hrs by sulforhodamine B assay; conditions: KM12, 48 h
SNB-75 = assay: Growth inhibition of human SNB75 cells incubated for 48 hrs by sulforhodamine B assay; conditions: SNB-75, 48 h; for CC50: read-out: LC50 (the source's name)
LOX IMVI [15] = assay: Growth inhibition of human LOXIMVI cells incubated for 48 hrs by sulforhodamine B assay
UACC-257 [16] = assay: Growth inhibition of human UACC257 cells incubated for 48 hrs by sulforhodamine B assay; conditions: UACC-257, 48 h; for CC50: read-out: LC50 (the source's name)
OVCAR-4 [17] = assay: Growth inhibition of human OVCAR4 cells incubated for 48 hrs by sulforhodamine B assay; conditions: OVCAR-4, 48 h
OVCAR-8 [18] = assay: Growth inhibition of human OVCAR8 cells incubated for 48 hrs by sulforhodamine B assay; conditions: OVCAR-8, 48 h
A498 = assay: Growth inhibition of human A498 cells incubated for 48 hrs by sulforhodamine B assay; conditions: A498, 48 h; for CC50: read-out: LC50 (the source's name)
ACHN = assay: Growth inhibition of human ACHN cells incubated for 48 hrs by sulforhodamine B assay; conditions: for CC50: read-out: LC50 (the source's name)
UO-31 = assay: Growth inhibition of human UO31 cells incubated for 48 hrs by sulforhodamine B assay; conditions: UO-31, 48 h
MDA-MB-231 = assay: Growth inhibition of human MDA-MB-231 cells incubated for 48 hrs by sulforhodamine B assay; conditions: MDA-MB-231, 48 h
Hs-578T = assay: Growth inhibition of human Hs 578T cells incubated for 48 hrs by sulforhodamine B assay
BT-549 = assay: Growth inhibition of human BT549 cells incubated for 48 hrs by sulforhodamine B assay; conditions: BT-549, 48 h
[19] = read-out: LC50 (the source's name)

Compound: CCCCOc1nc2ccccc2cc1C1CNC(=O)c2ccccc2N1 (centres undefined)
- growth at 0.01 µM (SR [1]): 86%
- growth at 0.01 µM (MDA-MB-468 [2]): 78%
- growth at 0.1 µM (SR [3]): 64%
- growth at 0.1 µM (A549 [4]): 100%
- growth at 0.1 µM (EKVX [5]): 97%
- growth at 0.1 µM (UACC-257 [6]): 92%
- growth at 1 µM (NCI-H23): 91%
- growth at 1 µM (OVCAR-8 [7]): 94%
- growth at 1 µM (SK-OV-3 [8]): 80%
- growth at 1 µM (SN12C): 84%
- growth at 1 µM (T47D): 86%
- growth at 1 µM (MDA-MB-468 [9]): 66%
- growth at 10 µM (EKVX [10]): 31%
- growth at 10 µM (LOX IMVI [11]): 15%
- growth at 100 µM (HL-60(TB)): -55%
- growth at 100 µM (OVCAR-4 [12]): -37%
- growth at 100 µM (SK-OV-3 [13]): -21%
- GI50 (K562): 0.84 µM
- LC50 (K562): > 100 µM
- TGI (K562): 16.4 µM
- GI50 (RPMI-8226): 2.86 µM
- TGI (RPMI-8226): 25.1 µM
- CC50 (RPMI-8226): > 100 µM
- GI50 (A549 [14]): 3.64 µM
- LC50 (A549 [14]): 53 µM
- TGI (A549 [14]): 14.5 µM
- GI50 (NCI-H522): 2.39 µM
- TGI (NCI-H522): 25.8 µM
- CC50 (NCI-H522): > 100 µM
- GI50 (HCC 2998): 3.58 µM
- TGI (HCC 2998): 26.7 µM
- CC50 (HCC 2998; [19]): > 100 µM
- GI50 (HCT-116): 1.84 µM
- TGI (HCT-116): 6.26 µM
- CC50 (HCT-116; [19]): 44.7 µM
- GI50 (HT-29): 3.21 µM
- TGI (HT-29): 11.1 µM
- CC50 (HT-29; [19]): 67.7 µM
- GI50 (KM12): 3.3 µM
- TGI (KM12): 80.6 µM
- CC50 (KM12; [19]): > 100 µM
- GI50 (SNB-75): 1.81 µM
- TGI (SNB-75): 13.7 µM
- CC50 (SNB-75): 48.3 µM
- GI50 (LOX IMVI [15]): 2.9 µM
- TGI (LOX IMVI [15]): 14.4 µM
- CC50 (LOX IMVI [15]; [19]): 47.3 µM
- GI50 (UACC-257 [16]): 8.16 µM
- TGI (UACC-257 [16]): > 100 µM
- CC50 (UACC-257 [16]): > 100 µM
- GI50 (OVCAR-4 [17]): 5.38 µM
- TGI (OVCAR-4 [17]): 31.8 µM
- CC50 (OVCAR-4 [17]; [19]): > 100 µM
- GI50 (OVCAR-8 [18]): 3.45 µM
- TGI (OVCAR-8 [18]): 16.1 µM
- CC50 (OVCAR-8 [18]; [19]): > 100 µM
- GI50 (A498): 0.39 µM
- TGI (A498): 4.7 µM
- CC50 (A498): > 100 µM
- GI50 (ACHN): 3.92 µM
- TGI (ACHN): 17.1 µM
- CC50 (ACHN): 5.95 µM
- GI50 (UO-31): 2.41 µM
- TGI (UO-31): 20.9 µM
- CC50 (UO-31; [19]): 67.2 µM
- GI50 (MDA-MB-231): 3.83 µM
- TGI (MDA-MB-231): 20.9 µM
- CC50 (MDA-MB-231; [19]): 90.3 µM
- GI50 (Hs-578T): 3.21 µM
- TGI (Hs-578T): 33.8 µM
- CC50 (Hs-578T; [19]): > 100 µM
- GI50 (BT-549): 5.22 µM
- TGI (BT-549): 38.8 µM
- CC50 (BT-549; [19]): > 100 µM

Compound: COc1cccc2c1C(=O)c1c(O)c3c(c(O)c1C2=O)C[C@@](O)(C(=O)CO)C[C@@H]3O[C@H]1C[C@H](N)[C@H](O)[C@H](C)O1 [DOXORUBICIN]
- GI50 (K562): 0.19 µM
- GI50 (RPMI-8226): 0.08 µM
- CC50 (RPMI-8226): 100 µM
- GI50 (A549 [14]): 0.06 µM
- GI50 (NCI-H522): 0.03 µM
- CC50 (NCI-H522): 2.8 µM
- GI50 (HCC 2998): 0.26 µM
- GI50 (HCT-116): 0.08 µM
- GI50 (HT-29): 0.12 µM
- GI50 (KM12): 0.27 µM
- GI50 (SNB-75): 0.07 µM
- CC50 (SNB-75): 3.3 µM
- GI50 (LOX IMVI [15]): 0.07 µM
- GI50 (UACC-257 [16]): 0.12 µM
- CC50 (UACC-257 [16]): 0.74 µM
- GI50 (OVCAR-4 [17]): 0.37 µM
- GI50 (OVCAR-8 [18]): 0.1 µM
- GI50 (A498): 0.1 µM
- CC50 (A498): 1.9 µM
- GI50 (ACHN): 0.08 µM
- CC50 (ACHN): 100 µM
- GI50 (UO-31): 0.49 µM
- GI50 (MDA-MB-231): 0.51 µM
- GI50 (Hs-578T): 0.33 µM
- GI50 (BT-549): 0.23 µM
